This is an account of results in article PMC4243815, “A non-pediocin low molecular weight antimicrobial peptide produced by Pediococcus pentosaceus strain IE-3 shows increased activity under reducing environment” (BMC Microbiology, 2014).

Data set [1] in a line: Effect of DTT on antimicrobial activity of the purified peptide. The note with it: 1 h/RT, growth inhibition assay.
Description: (§1) The sensitivity of the bacteriocin towards different pH, temperatures and proteases was evaluated using purified bacteriocin. The purified peptide was incubated between pH values 2.0-10.0 and temperatures including 80, 100°C for 30 min and 120°C for 15 min. Antimicrobial peptide (200 μg) was incubated with various proteolytic enzymes such as trypsin (10 μg/ml, Sigma, USA), chymotrypsin (5 μg/ml, Sigma, USA) and proteinase K (5 units, Sigma, USA) in 100 mM Tris HCl buffer pH 8.0 (with 10 mM CaCl2) at 30°C for 6 h to determine their effect. The enzyme activity was terminated by heating the reaction mix at 80°C and subsequently used for antimicrobial activity assay. To test the effect of denaturant like DTT (BioRad, USA) on antimicrobial activity of the peptide, it was incubated with 50 to 150 mM DTT at room temperature for 1 h and used for growth inhibition assay. Hydrogen peroxide induced oxidation was tested by incubating the purified peptide with 100 mM concentration of hydrogen peroxide (Merck, India) for 1 h at room temperature [36] and activity was tested by well diffusion assay.
A short description of data set [2]: Hydrogen peroxide induced oxidation, activity by well diffusion assay. It counts as physicochemical. The note with it: 100 mM hydrogen peroxide, 1 h, room temperature. Background: In agar diffusion tests the substance spreads into inoculated agar from a disc or well.
Description: as §1
The next data set deals with T1, proteinase K (Parengyodontium album, UniProt P06873).
T1 construct: purchased Sigma, USA
Description: Effect of proteolytic enzymes on antimicrobial activity. The settings on record: 200 μg peptide; proteinase K 5 units; 100 mM Tris HCl pH 8.0 with 10 mM CaCl2; 30°C, 6 h; read-out antimicrobial assay.

The subject of the next data set is trypsin. Described as above. The settings on record: 200 μg peptide; trypsin 10 μg/ml; 100 mM Tris HCl pH 8.0 with 10 mM CaCl2; 30°C, 6 h; read-out antimicrobial assay. As for the experimental part: The sensitivity of the bacteriocin towards different pH, temperatures and proteases was evaluated using purified bacteriocin. The purified peptide was incubated between pH values 2.0-10.0 and temperatures including 80, 100°C for 30 min and 120°C for 15 min. Antimicrobial peptide (200 μg) was incubated with various proteolytic enzymes such as trypsin (10 μg/ml, Sigma, USA), chymotrypsin (5 μg/ml, Sigma, USA) and proteinase K (5 units, Sigma, USA) in 100 mM Tris HCl buffer pH 8.0 (with 10 mM CaCl2) at 30°C for 6 h to determine their effect. The enzyme activity was terminated by heating the reaction mix at 80°C and subsequently used for antimicrobial activity assay. To test the effect of denaturant like DTT (BioRad, USA) on antimicrobial activity of the peptide, it was incubated with 50 to 150 mM DTT at room temperature for 1 h and used for growth inhibition assay. Hydrogen peroxide induced oxidation was tested by incubating the purified peptide with 100 mM concentration of hydrogen peroxide (Merck, India) for 1 h at room temperature and activity was tested by well diffusion assay.

A short description of data set [3]: Effect of pH on antimicrobial activity of the purified peptide. In kind it is physicochemical.
Description: as §1
The next data set has as its system amylase. Description: Effect of amylase treatment on antimicrobial activity.
Data set [4] is described as follows: Storage stability of the purified peptide. It counts as physicochemical.
For another data set, the system named is M. luteus. It counts as cell-based, Micrococcus luteus. The note with it: 16 h. How it is done:
The MIC was determined for various indicator strains using a microtiter plate dilution assay as described earlier. Cell growth was measured by observing OD at 600 nm at 16 h time interval using microtiter plate reader (Multiskan spectrum, Thermo, USA). The protein concentration was determined by BCA protein concentration estimation kit (Thermo, USA) following instructions of the manufacturer. For MIC determination of DTT treated peptide, the DTT solution was filter sterilized and final 100 mM concentration was used to treat peptide.

Data set [5] deals with pepsin, trypsin, chymotrypsin, proteinase K and pronase E. The settings on record: cited from earlier work. The text has this: Bacteria produces different kinds of antimicrobial substances including ribosomally synthesized bacteriocins and non-ribosomally synthesized antibiotics or lipopeptides as a part of their defense strategies in complex environments such as fermented foods and the human gut. Members belonging to the lactic acid bacteria (LAB) family with ability to produce bacteriocins are frequently found in these environments. LAB strains are recognized as GRAS (Generally Regarded As Safe) microorganisms and have been studied in detail for biotechnological applications together with the bacteriocins prod ...

≈ marks a conversion by molar mass, not a printed value. Ends that are not written are not given here. Peptide text beside a SMILES is read from it.

The MIC is the smallest concentration in the dilution series that meets the test's criterion for growth inhibition. A high value points to weaker potency.

T1 sequence (P06873 106-384): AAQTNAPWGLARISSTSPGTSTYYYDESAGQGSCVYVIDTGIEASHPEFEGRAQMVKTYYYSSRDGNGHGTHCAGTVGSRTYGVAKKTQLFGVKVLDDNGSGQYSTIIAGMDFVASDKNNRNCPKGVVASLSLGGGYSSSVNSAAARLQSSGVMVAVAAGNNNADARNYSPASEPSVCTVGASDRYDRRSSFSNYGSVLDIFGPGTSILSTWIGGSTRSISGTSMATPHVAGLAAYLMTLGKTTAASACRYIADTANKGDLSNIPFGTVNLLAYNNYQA

Consider `CC(C)C[C@H](NC(=O)[C@H](Cc1c[nH]cn1)NC(=O)[C@@H](NC(=O)[C@H](CC(C)C)NC(=O)[C@H](CS)NC(=O)CNC(=O)[C@H](CCCNC(=N)N)NC(=O)[C@@H](NC(=O)[C@H](CS)NC(=O)[C@H](CO)NC(=O)[C@H](Cc1ccccc1)NC(=O)[C@@H]1CCCN1C(=O)[C@@H](NC(=O)[C@@H]1CCCN1C(=O)[C@H](C)N)C(C)C)[C@@H](C)O)[C@@H](C)O)C(=O)N[C@H](C(=O)O)C(C)C` [LMW peptide] (H-APVPFSCTRGCLTHLV-OH; N-terminus and C-terminus assumed), for which the “Residual activity (%)” value in [1] (DTT 0 mM) was found to be 100.0%; in data set [1] (DTT 50 mM) it was 125.0%; in data set [1] (DTT 100 mM) it was 143.7%; in data set [1] (DTT 150 mM), 143.7%; in data set [3] (pH 2, Overnight/ RT), 100.0%; in data set [3] (pH 3, Overnight/ RT), 100.0%. Further, the “Residual activity (%)” value is listed as 100.0% in data set [3] (pH 4, Overnight/ RT); 100.0% in data set [3] (pH 5, Overnight/ RT); 87.5% in data set [3] (pH 6, Overnight/ RT); 75.0% in [3] (pH 7, Overnight/ RT); 37.5% in [3] (pH 8, Overnight/ RT); 25.0% in data set [3] (pH 9, Overnight/ RT). The “Residual activity (%)” value in [3] (pH 10, Overnight/ RT) amounted to 12.5%. In addition, the “Antimicrobial activity after incubation with H2O2” value in data set [2] is listed as “did not show any antimicrobial activity”. The “Antimicrobial activity after incubation with proteolytic enzyme” value at proteinase K and in the data set on trypsin was “no reduction in activity” each time. For the same compound, in the data set with amylase, the “Antimicrobial activity upon treatment with amylase” value was “Stable activity”. Besides, the “Antimicrobial activity during storage” value in data set [4] (purified peptide stored at room temperature, within 24 h) is recorded as “significant reduction in antimicrobial activity”; in data set [4] (purified peptide stored at −20°C), “stable”. Moreover, the MIC in the data set with M. luteus amounted to 6.3 µM (≈ 10.7 µg/mL).

With “pediocin PA-1: well-studied 4.6 kDa class IIa antimicrobial peptide (bacteriocin) from Pediococcus sp. (KYYGNGVTCGKHSCSVDWGKATTCIINNGAMAWATGGHQGNHKC; ends and bridges not checked; cysteine pairing not given here; UniProt P29430 19-62, looked up)”, the “Effect of proteases on activity” value in data set [5] is given as “inactivated”.
